Test results from BindingDB's records for doi:10.1021/jm00142a026 (1981).

Molecular target: Beta-1/Beta-2/Beta-3 adrenergic receptor (Rattus norvegicus, UniProt P10608+P18090+P26255)
Assay: Binding affinity against Beta adrenergic receptor using [3H]dihydroalprenolol radioligand in rat brain homogenate

Beta-1/Beta-2/Beta-3 adrenergic receptor, sequence (P18090 whole entry): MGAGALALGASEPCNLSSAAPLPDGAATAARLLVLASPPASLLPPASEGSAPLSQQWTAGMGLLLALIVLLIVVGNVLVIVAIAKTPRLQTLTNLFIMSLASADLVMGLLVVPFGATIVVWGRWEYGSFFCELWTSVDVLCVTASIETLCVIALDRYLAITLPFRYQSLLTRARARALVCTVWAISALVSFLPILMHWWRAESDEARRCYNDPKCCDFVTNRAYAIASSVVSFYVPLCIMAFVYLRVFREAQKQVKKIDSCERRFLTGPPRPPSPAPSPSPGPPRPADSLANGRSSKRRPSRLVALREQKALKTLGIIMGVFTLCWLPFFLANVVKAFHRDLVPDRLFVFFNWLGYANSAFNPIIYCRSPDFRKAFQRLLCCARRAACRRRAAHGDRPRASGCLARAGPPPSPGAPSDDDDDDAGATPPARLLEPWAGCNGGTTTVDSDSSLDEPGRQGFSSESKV
Beta-1/Beta-2/Beta-3 adrenergic receptor, sequence (P26255 whole entry): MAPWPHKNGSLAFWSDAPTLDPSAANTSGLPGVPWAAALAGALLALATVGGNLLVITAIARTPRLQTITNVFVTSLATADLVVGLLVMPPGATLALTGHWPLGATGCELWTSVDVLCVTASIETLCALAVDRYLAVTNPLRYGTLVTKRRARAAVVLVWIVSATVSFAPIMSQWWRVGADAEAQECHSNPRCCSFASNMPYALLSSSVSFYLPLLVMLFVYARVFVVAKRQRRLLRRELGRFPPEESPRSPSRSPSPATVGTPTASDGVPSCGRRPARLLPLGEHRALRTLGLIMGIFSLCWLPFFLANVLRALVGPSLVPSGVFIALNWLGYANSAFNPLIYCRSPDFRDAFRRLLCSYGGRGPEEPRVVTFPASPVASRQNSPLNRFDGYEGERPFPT
Beta-1/Beta-2/Beta-3 adrenergic receptor, sequence (P10608 whole entry): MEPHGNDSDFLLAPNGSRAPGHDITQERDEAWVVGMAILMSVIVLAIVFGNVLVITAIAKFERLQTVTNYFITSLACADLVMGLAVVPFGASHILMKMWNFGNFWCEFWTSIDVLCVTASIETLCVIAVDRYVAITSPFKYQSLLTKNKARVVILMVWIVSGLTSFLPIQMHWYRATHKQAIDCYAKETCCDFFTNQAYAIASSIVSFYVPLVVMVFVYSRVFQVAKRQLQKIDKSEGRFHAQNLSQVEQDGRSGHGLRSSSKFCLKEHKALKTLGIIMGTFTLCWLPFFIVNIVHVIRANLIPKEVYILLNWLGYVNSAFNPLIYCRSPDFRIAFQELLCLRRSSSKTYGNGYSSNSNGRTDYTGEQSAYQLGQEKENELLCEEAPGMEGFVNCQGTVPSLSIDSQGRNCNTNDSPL

Row | IC50 [µM] | Compound
1 | 110 | CNCC(c1ccc(O)c(O)c1)S(=O)(=O)O (configuration not stated)
2 | 130 | NCC(c1ccc(O)c(O)c1)S(=O)(=O)O (configuration not stated)
